# Data as given in PubChem BioAssay AID180 (DTP/NCI, 2004).
# Values joined by “and” are separate entries in the source; they are usually repeats but may differ in a detail not shown here. Identical values can stand only once.
# Test system: BDF1 mice, Adenocarcinoma 755 s.c., tumor weight T/C
# Experiment: NCI In Vivo Anticancer Drug Screen. Data for tumor model Adenocarcinoma 755 (subcutaneous) in B6D2F1 (BDF1) mice
# Settings: endpoint: mean tumor weight, higher = larger tumour
# Summary of the method: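 Values express treated (T) relative to vehicle-dosed control (C) animals, based on survival or tumour size measured after compound treatment of mice bearing a transplanted tumour.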
# [1] = dose: 200.0 mg/kg/injection, schedule: Q01DX011 (ip), vehicle: saline
# [2] = dose: 240.0 mg/kg/injection, schedule: Q01DX011 (ip), vehicle: carboxymethylcellulose (CMC)
# [3] = dose: 300.0 mg/kg/injection, schedule: Q01DX011 (ip), vehicle: saline
# [4] = dose: 30.0 mg/kg/injection, schedule: Q01DX011 (ip), vehicle: carboxymethylcellulose (CMC)
# [5] = dose: 60.0 mg/kg/injection, schedule: Q01DX011 (ip), vehicle: carboxymethylcellulose (CMC)
# [6] = dose: 120.0 mg/kg/injection, schedule: Q01DX011 (ip), vehicle: carboxymethylcellulose (CMC)
structure (smiles),measurement,setting,value
COc1ccc(C[n+]2cc([O-])on2)cc1,T/C,"dose: 0.39 mg/kg/injection, schedule: Q01DX011 (ip), vehicle: carboxymethylcellulose (CMC)",75 % of control
same,T/C,"dose: 0.78 mg/kg/injection, schedule: Q01DX011 (ip), vehicle: carboxymethylcellulose (CMC)",80 % of control
same,T/C,"dose: 1.56 mg/kg/injection, schedule: Q01DX011 (ip), vehicle: carboxymethylcellulose (CMC)",63 % of control
same,T/C,"dose: 3.0 mg/kg/injection, schedule: Q01DX011 (ip), vehicle: carboxymethylcellulose (CMC)",70 % of control
same,T/C,"dose: 6.0 mg/kg/injection, schedule: Q01DX011 (ip), vehicle: carboxymethylcellulose (CMC)",89 % of control
same,T/C,"dose: 6.25 mg/kg/injection, schedule: Q01DX011 (ip), vehicle: carboxymethylcellulose (CMC)",57 % of control
same,T/C,"dose: 12.0 mg/kg/injection, schedule: Q01DX011 (ip), vehicle: carboxymethylcellulose (CMC)",52 % of control
same,T/C,"dose: 12.5 mg/kg/injection, schedule: Q01DX011 (ip), vehicle: carboxymethylcellulose (CMC)",51 % of control
same,T/C,"dose: 24.0 mg/kg/injection, schedule: Q01DX011 (ip), vehicle: carboxymethylcellulose (CMC)",67 % of control
C[C@]12C[C@H](O)[C@H]3[C@@H](CCC4=CC(=O)CC[C@@]43C)[C@@H]1CC[C@@H]2C(=O)CF,T/C,"dose: 25.0 mg/kg/injection, schedule: Q01DX011 (sc), vehicle: steriod suspending solution",121 % of control
same,T/C,"dose: 200.0 mg/kg/injection, schedule: Q01DX011 (sc), vehicle: steriod suspending solution",79 % of control
same,T/C,"dose: 400.0 mg/kg/injection, schedule: Q01DX011 (sc), vehicle: steriod suspending solution",79 % of control
CNC=O,T/C,"dose: 4.41 mg/kg/injection, schedule: Q01DX011 (ip), vehicle: carboxymethylcellulose (CMC)",107 % of control
same,T/C,"dose: 8.82 mg/kg/injection, schedule: Q01DX011 (ip), vehicle: carboxymethylcellulose (CMC)",94 % of control
same,T/C,"dose: 17.65 mg/kg/injection, schedule: Q01DX011 (ip), vehicle: carboxymethylcellulose (CMC)",110 % of control
same,T/C,"dose: 42.88 mg/kg/injection, schedule: Q01DX011 (ip), vehicle: carboxymethylcellulose (CMC)",60 % of control
same,T/C,"dose: 45.0 mg/kg/injection, schedule: Q01DX011 (ip), vehicle: carboxymethylcellulose (CMC)",113 % of control
same,T/C,"dose: 85.75 mg/kg/injection, schedule: Q01DX011 (ip), vehicle: carboxymethylcellulose (CMC)",78 % of control
same,T/C,"dose: 90.0 mg/kg/injection, schedule: Q01DX011 (ip), vehicle: carboxymethylcellulose (CMC)",99 % of control
same,T/C,"dose: 93.67 mg/kg/injection, schedule: Q01DX011 (ip), vehicle: carboxymethylcellulose (CMC)",104 % of control
same,T/C,"dose: 137.2 mg/kg/injection, schedule: Q01DX011 (ip), vehicle: carboxymethylcellulose (CMC)",70 % of control
same,T/C,"dose: 144.0 mg/kg/injection, schedule: Q01DX011 (ip), vehicle: carboxymethylcellulose (CMC)",86 % of control
same,T/C,"dose: 180.0 mg/kg/injection, schedule: Q01DX011 (ip), vehicle: carboxymethylcellulose (CMC)",98 % of control
same,T/C,"dose: 187.35 mg/kg/injection, schedule: Q01DX011 (ip), vehicle: carboxymethylcellulose (CMC)",100 % of control and 111 % of control
same,T/C,[1],31 % of control
same,T/C,"dose: 228.6 mg/kg/injection, schedule: Q01DX011 (ip), vehicle: carboxymethylcellulose (CMC)",65 % of control
same,T/C,[2],101 % of control
same,T/C,"dose: 250.0 mg/kg/injection, schedule: Q01DX011 (ip), vehicle: saline",14 % of control
same,T/C,[3],1 % of control
same,T/C,"dose: 343.0 mg/kg/injection, schedule: Q01DX011 (ip), vehicle: carboxymethylcellulose (CMC)",20 % of control and 30 % of control
same,T/C,"dose: 360.0 mg/kg/injection, schedule: Q01DX011 (ip), vehicle: carboxymethylcellulose (CMC)",30 % of control and 35 % of control
same,T/C,"dose: 374.7 mg/kg/injection, schedule: Q01DX011 (ip), vehicle: carboxymethylcellulose (CMC)",103 % of control
FC(F)(F)c1nc(Cl)nc2c1ncn2Cc1ccccc1,T/C,[4],56 % of control
same,T/C,[5],97 % of control
same,T/C,[6],97 % of control
CCCCCCCCCCCCCCCCCCN(C)C,T/C,"dose: 12.0 mg/kg/injection, schedule: Q01DX011 (ip), vehicle: distilled water + alcohol",61 % of control
same,T/C,"dose: 18.0 mg/kg/injection, schedule: Q01DX011 (ip), vehicle: distilled water + alcohol",43 % of control
same,T/C,"dose: 27.0 mg/kg/injection, schedule: Q01DX011 (ip), vehicle: distilled water + alcohol",51 % of control
same,T/C,"dose: 40.0 mg/kg/injection, schedule: Q01DX011 (ip), vehicle: distilled water + alcohol",36 % of control
NC(=S)n1cccn1,T/C,"dose: 20.0 mg/kg/injection, schedule: Q01DX011 (ip), vehicle: methylcellulose (MC)",91 % of control
same,T/C,"dose: 40.0 mg/kg/injection, schedule: Q01DX011 (ip), vehicle: methylcellulose (MC)",85 % of control
same,T/C,"dose: 80.0 mg/kg/injection, schedule: Q01DX011 (ip), vehicle: methylcellulose (MC)",44 % of control
same,T/C,"dose: 160.0 mg/kg/injection, schedule: Q01DX011 (ip), vehicle: methylcellulose (MC)",8 % of control
O=C(OCC1OC(n2cnc3c(=O)[nH]c(=O)[nH]c32)C(OC(=O)c2ccccc2)C1OC(=O)c1ccccc1)c1ccccc1 (stereo not drawn),T/C,[4],105 % of control
same,T/C,[5],78 % of control
same,T/C,[2],59 % of control
CCC(C)n1ncc2c(N(C)C)ncnc21 (stereo not drawn),T/C,"dose: 16.25 mg/kg/injection, schedule: Q01DX011 (ip), vehicle: saline",54 % of control and 73 % of control
same,T/C,"dose: 32.5 mg/kg/injection, schedule: Q01DX011 (ip), vehicle: saline",42 % of control and 46 % of control
same,T/C,"dose: 65.0 mg/kg/injection, schedule: Q01DX011 (ip), vehicle: saline",6 % of control
O=c1[nH]cc(C(F)(F)F)c(=O)[nH]1,T/C,"dose: 50.0 mg/kg/injection, schedule: Q01DX011 (ip), vehicle: saline",53 % of control
same,T/C,"dose: 100.0 mg/kg/injection, schedule: Q01DX011 (ip), vehicle: saline",65 % of control
same,T/C,[1],38 % of control and 57 % of control
same,T/C,[3],40 % of control and 56 % of control
same,T/C,"dose: 400.0 mg/kg/injection, schedule: Q01DX011 (ip), vehicle: saline",32 % of control and 34 % of control
same,T/C,"dose: 500.0 mg/kg/injection, schedule: Q01DX011 (ip), vehicle: saline",56 % of control and 65 % of control
same,T/C,"dose: 600.0 mg/kg/injection, schedule: Q01DX011 (ip), vehicle: saline",37 % of control
CC(=O)Nc1nc(SCc2ccccc2)c2ncn(C3CCCO3)c2n1 (stereo not drawn),T/C,"dose: 6.2 mg/kg/injection, schedule: Q01DX011 (ip), vehicle: methylcellulose (MC)",54 % of control
same,T/C,"dose: 15.0 mg/kg/injection, schedule: Q01DX011 (ip), vehicle: methylcellulose (MC)",6 % of control
same,T/C,"dose: 50.0 mg/kg/injection, schedule: Q01DX011 (ip), vehicle: methylcellulose (MC)",4 % of control
Nc1nc(SCc2ccccc2Cl)c2ncn(C3OC(CO)C(O)C3O)c2n1 (stereo not drawn),T/C,"dose: 0.85 mg/kg/injection, schedule: Q01DX011 (ip), vehicle: methylcellulose (MC)",69 % of control
same,T/C,"dose: 1.7 mg/kg/injection, schedule: Q01DX011 (ip), vehicle: methylcellulose (MC)",22 % of control
same,T/C,"dose: 3.4 mg/kg/injection, schedule: Q01DX011 (ip), vehicle: methylcellulose (MC)",26 % of control
same,T/C,"dose: 6.75 mg/kg/injection, schedule: Q01DX011 (ip), vehicle: methylcellulose (MC)",4 % of control
NNC(=O)NC(=O)NN,T/C,"dose: 13.06 mg/kg/injection, schedule: Q01DX011 (ip), vehicle: carboxymethylcellulose (CMC)",117 % of control
same,T/C,"dose: 26.13 mg/kg/injection, schedule: Q01DX011 (ip), vehicle: carboxymethylcellulose (CMC)",187 % of control
same,T/C,"dose: 52.25 mg/kg/injection, schedule: Q01DX011 (ip), vehicle: carboxymethylcellulose (CMC)",74 % of control
same,T/C,"dose: 104.5 mg/kg/injection, schedule: Q01DX011 (ip), vehicle: carboxymethylcellulose (CMC)",79 % of control
same,T/C,"dose: 3845.0 micrograms/kg/injection, schedule: Q01DX011 (ip), vehicle: carboxymethylcellulose (CMC)",207 % of control
same,T/C,"dose: 7690.0 micrograms/kg/injection, schedule: Q01DX011 (ip), vehicle: carboxymethylcellulose (CMC)",46 % of control
O=c1[nH]c(Br)nc2nc[nH]c12,T/C,[4],99 % of control
same,T/C,[5],98 % of control
same,T/C,[6],81 % of control
same,T/C,[2],92 % of control
